Here are results for 4 compounds from PMC7284870, “Antimicrobial Peptides from Rat-Tailed Maggots of the Drone Fly Eristalis tenax Show Potent Activity against Multidrug-Resistant Gram-Negative Bacteria” (Microorganisms, 2020).

Data set [1] deals with Listeria monocytogenes DSM 20600. It counts as cell-based. The note with it: CAMB, 18 h, 37 °C, n = 4. Put shortly:
(§1)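 Broth microdilution in cation-adjusted Mueller–Hinton broth, inoculum 5 × 10^5 cells/mL from 18 h cultures; final peptide range 1024–0.03125 µg/mL, medium supplemented with 150 mM NaCl or 1.25 mM CaCl2. Growth scored visually and by OD600; MIC = lowest concentration without growth.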

Data set [2] deals with Stenotrophomonas maltophilia RKI 136/09. The data set is classed as cell-based. Put shortly: as §1
Data set [3] deals with Mycobacterium smegmatis ATCC 607. The data set is classed as cell-based. The note with it: BHI, 48 h, 37 °C, BacTiter-Glo, n = 4.
The subject of data set [4] is Enterococcus faecium DSM 17050. It counts as cell-based. The note with it: CAMB, 18 h, 37 °C, n = 4. Put shortly: as §1
Data set [5] concerns Gram-negative clinical isolates. The data set is classed as cell-based. The method, boiled down:
as §1

Data set [6] concerns Proteus mirabilis DSM 4479. The data set is classed as cell-based. To be noted: CAMB, 18 h, 37 °C, n = 4. Put shortly: as §1
The subject of data set [7] is Staphylococcus epidermidis ATCC 35984. The data set is classed as cell-based. The note with it: CAMB, 18 h, 37 °C, n = 4. Put shortly:
as §1

The test system of the next data set is Canida albicans FH2173. It counts as cell-based, Candida albicans. The note with it: CAMB, 24 h, 37 °C, n = 4. Put shortly: as §1
For the next data set, the system named is E. coli RKI 6A-6. In words: microbe, parasite or virus in culture. It counts as cell-based, Escherichia coli. Put shortly: as §1
The next data set deals with human erythrocytes. Nature of the data set: Hemolysis of human erythrocytes. To be noted: hRBC in PBS, 3 h, 37 °C, A540; highest tested 1024 µg/mL. On the procedure: Fresh citrated stabilized human whole blood was centrifuged at 500× g for 5 min. and the cell sediment was washed three times with phosphate buffered saline (PBS) before resuspending in PBS (50-fold the initial sample volume) to generate the human red blood cell (hRBC) suspension. The peptides were dissolved in sterile water at a concentration of 10.24 mg/mL and a dilution series was prepared in a 384-well microtiter plate, as above, to achieve the concentration range 10,240–0.3125 µg/mL in a volume of 50 µL. Triton X-100 (positive control) was diluted in sterile water to cover the concentration range 20–0.02%. We transferred 5-µL aliquots to new 384-well microtiter plates using the CyBio-Well 384-channel automated pipettor and added 45 µL of the hRBC suspension while using the Viafill reagent dispenser to achieve the final peptide concentration range 1024–0.031 µg/mL. After incubation at 37 °C. for 3 h, the plate was centrifuged and 20 μL of the supernatant from each well was transferred to a new microtiter plate. The quantity of released hemoglobin was determined by measuring the absorbance at 540 nm using a Lumistar plate reader (BMG Labtech, Ortenberg, Germany). The percent hemolysis was calculated by comparing to a control without peptide (no hemolysis) and a control with 2% Triton X-100 (100% hemolysis).

The subject of a further data set is K. pneumoniae RKI 268/15. It counts as cell-based, Klebsiella pneumoniae. As to the method:
(§2) The strains that were used in this study (Table 2 and Table S1) were cultivated at 37 °C in cation-adjusted Mueller–Hinton broth (CAMB) in Erlenmeyer flasks, or on the same medium with agar in Petri dishes. Exceptionally, Mycobacterium smegmatis was cultivated at 37 °C in brain heart infusion (BHI) medium that was supplemented with 1% Tween-80 in Erlenmeyer flasks, or on the same medium lacking detergent but with agar in Petri dishes. Strains listed with Robert Koch Institute (RKI) strain numbers are clinical isolates from the RKI strain collection originating from hospitalized patients in Germany. The remaining strains originated from the Sanofi strain collection and they were originally purchased from the American Type Culture Collection or the German Collection of Microorganisms and Cell Cultures. Meropenem/colistin-resistant strains were maintained, as described above, with the appropriate antibiotic added at levels below the minimal inhibitory concentration (MIC).
(§3) The MIC values were determined in 384-well microtiter plates with an assay volume of 20 µL. Immediately before each assay, the cultures of test organisms (bacteria grown for 18 h, Candida albicans and M. smegmatis grown for 48 h) were diluted with the appropriate medium to a density of 1 × 10^6 cells/mL (C. albicans), 1 × 10^5 cells/mL (M. smegmatis) or 5 × 10^5 cells per mL (other species). […] We transferred 2-µL aliquots from this dilution series to new 384-well microtiter plates while using a CyBio-Well 384-channel automated pipettor (Analytic Jena, Jena, Germany) and added 18 µL of the diluted suspension of each test species using a Viafill reagent dispenser (Integra), thus reducing the final peptide concentration 10-fold to the range 1024–0.03125 µg/mL. […] The growth of M. smegmatis was measured using the BacTiter-Glo luminescence test system (Promega, Madison, WI, USA). The growth of the other species was determined by visual inspection of the microtiter plate and turbidimetry based on the optical density at 600 nm (OD600). The MIC was defined as the peptide concentration at which no bacterial growth was observed. We supplemented the test medium with either 150 mM NaCl or 1.25 mM CaCl2 to represent monovalent and divalent cations to simulate physiological conditions.

The test system of a further data set is K. pneumoniae RKI 68/16. It counts as cell-based, Klebsiella pneumoniae. On the procedure:
as §2, §3

The test system of data set [8] is P. aeruginosa clinical isolates (2). It counts as cell-based, Pseudomonas aeruginosa. On the procedure: as §2
as §3, with “The MIC was defined as the peptide concentration at which no bacterial growth was observed. We supplemented the test medium with either 150 mM NaCl or 1.25 mM CaCl2 to represent monovalent and divalent cations to simulate physiological conditions.” left out

In data set [9] the test system is Seratia fonticola clinical isolate (1). Nature of the data set: MIC, clinical isolates. The data set is classed as cell-based, Serratia fonticola. To be noted: Table S1, RKI 517/16. On the procedure:
as §2
(§4) The MIC values were determined in 384-well microtiter plates with an assay volume of 20 µL. […] The growth of M. smegmatis was measured using the BacTiter-Glo luminescence test system (Promega, Madison, WI, USA). The growth of the other species was determined by visual inspection of the microtiter plate and turbidimetry based on the optical density at 600 nm (OD600). […]

A further data set deals with reference strains. In words: MIC, several reference strains. The data set is classed as cell-based. To be noted: reference strains of Table 2. On the procedure:
as §2, §4

Another data set has as its system E. coli ATCC25922. In words: Checkerboard assay EtDip with colistin. The data set is classed as cell-based, Escherichia coli. The note with it: CAMB, + 150 mM NaCl, + 1.25 mM CaCl2; FICindex ≤0.5 = synergy. On the procedure:
(§5) The interactions between pairs of compounds were analyzed using checkerboard assays in a 384-well microtiter plate with an assay volume of 20 µL. Immediately before the test runs, the bacterial cultures were diluted in CAMB to a density of 5 × 10^5 cells/mL. The two compounds for combinatorial testing were arrayed as 10-fold concentrated serial dilutions with respect to the final concentration, vertically for one compound and horizontally for the other, in the same 384-well microplate. Subsequently, we transferred 2-µL aliquots to new 384-well microtiter plates, and growth inhibition in each well was determined, as described for the MIC values above. Fractional inhibitory concentration (FIC) and FICindex values for each combination were calculated using the following formulae, where a
(§6) FICindex ≤0.5 indicates synergy and a FICindex >4 indicates antagonism.
(§7) FIC for compound A = MIC of compound A in combination/MIC of compound A
(§8) FIC for compound B = MIC of compound B in combination/MIC of compound B

Another data set deals with P. aeruginosa ATCC 27853. In words: Checkerboard assay EtDip with colistin. It counts as cell-based, Pseudomonas aeruginosa. To be noted: CAMB and + 150 mM NaCl; not in the presence of CaCl2. As to the method: as §5, §6, §7, §8

Values after ≈ are worked out from the molar mass of the structure shown. Read-outs that look alike come from different tables or passages of the source. No end group written: not given here.

In the case of “GWLRDFGKRIERTGQNIRDATIQTIGIAQEAANVAATLK-NH2 [EtCec2-NH2]”, the MIC in data set [1] was greater than 1024 µg/mL; in data set [2] (CAMB adjusted to 150 mM NaCl, n=3), 512 µg/mL; in data set [2] (Table 4, CAMB, n=3), 256 µg/mL; in [3] it was greater than 1024 µg/mL; in [4] it was greater than 1024 µg/mL; in [5] (isolates of M. morganii and S. fonticola), greater than 128 µg/mL. Besides, the MIC in data set [6] was greater than 1024 µg/mL; in data set [7] it was greater than 1024 µg/mL; in the data set on Canida albicans FH2173, greater than 1024 µg/mL; with E. coli RKI 6A-6 (Table 4, CAMB, n=3), 64 µg/mL; against K. pneumoniae RKI 268/15 (Table 4, CAMB, n=3) it was 64 µg/mL; against K. pneumoniae RKI 68/16 (Table 4, CAMB, n=3), 128 µg/mL. The compound further returned a minimal hemolytic concentration with human erythrocytes of 512 µg/mL.

Regarding `C[C@@H](O)[C@H]1C(=O)N2C(C(=O)O)=C(S[C@@H]3CN[C@H](C(=O)N(C)C)C3)[C@H](C)[C@H]12` [MEM, meropenem], the MIC in data set [2] (Table S1, RKI 136/09) was greater than 64 µg/mL; in data set [8] (Table S1, RKI 93/12), 16 µg/mL (≈ 41.7 µM); in data set [8] (Table S1, RKI 628/16), 8 µg/mL (≈ 20.9 µM); in the data set on E. coli RKI 6A-6 (Escherichia coli, RKI6A6, Table S1, RKI 6A-6, read-out: MIC), no more than 0.5 µg/mL; in data set [9], 32 µg/mL (≈ 83.4 µM); with K. pneumoniae RKI 268/15 (Table S1, RKI 268/15), 16 µg/mL (≈ 41.7 µM). The compound further came in with an MIC in the data set on K. pneumoniae RKI 68/16 (Table S1, RKI 68/16) of no more than 0.5 µg/mL.

For the compound “QFNMQGGGSPRQGFDVNANARFPIWQSQNARNSVHGTASYAQHLGGPYGNSRPNFGGGLQFT [EtDip]”, the MIC in data set [1] is on record as greater than 1024 µg/mL; in data set [3], 64 µg/mL; in data set [4] it was greater than 1024 µg/mL; in [6] it was greater than 1024 µg/mL; in [7] it was greater than 1024 µg/mL; in the data set on Canida albicans FH2173, greater than 1024 µg/mL. Also, the “activity against the test strains” value in the data set with reference strains is on record as “no activity”. Further, the “interaction with colistin (FICindex)” value in the data set on E. coli ATCC25922 and with P. aeruginosa ATCC 27853 was “Synergistic interactions” in each case. In the data set on human erythrocytes, this compound gave a minimal hemolytic concentration greater than 1024 µg/mL.

Regarding “GFLKKIGKKLEGAVQRTRDATIQTIAVAQAAANVAATAKQ-NH2 [EtCec1-NH2]”, the MIC is no less than 64 µg/mL in data set [5] (18 h) and 128 µg/mL in data set [8] (clinical isolates (2, 18 h)).
